Assay results published in US4004976A, “Process for recovering the main sapogenins from the roots of rhizomes of helleborus” (Deutsche Gold- und Silber-Scheideanstalt vormals Roessler, priority 1974, dated 1977).

Columns and labels:
central nervous system = assay: Muscle relaxing and central nervous system influencing activity; details: in words, no test described
[1] = test system: indometacin ulcer of rats; assay: Indometacin ulcer of rats (method of John and Adrian modified by Wilhelmi), ulcer protecting effect; format: in vivo, rat (albino rats of the strain SIV 50); details: for Ulcer Protecting Effect: oral, 1 h after indometacin 20 mg/kg, evaluated 24 h after indometacin
Method: These tests were carried out according to the method of John and Adrian modified by Wilhelmi on the indometacin ulcer of rats (see Arneimittelforschung Vol. 19 (1969) pages 45 et seq.)
The determination is carried out in the following manner.
Albino rats of the strain SIV 50 (S. Ivanovas, Kisslegg/Allgau) having an initial weight of 250 to 300 grams were held in controlled temperature rooms at 20° to 22° C. in wire cages (Ebeco, Type 3 double width) on a standard diet (Altromin). After 48-hour feeding intervals the animals received 20 mg/kg rat of indometacin in 1.5% tragacanth (1 ml tragacanth solution per 100 grams of rat) applied intragastrally.
One hour after giving the indometacin there was dispensed orally to the animals the test substance. The rats remain otherwise fasting (water ad libitum).
Twenty-four hours after giving the indometacin the animals were killed with CO2. The stomach was resected, opened along the great curvature and washed under flowing water.
The ulcerative changes appear as dark, point or stria shaped spots on the mucosa. The evaluation was done according to the method of Munchow, Arneimittelforschung Vol. 4 (1954) pages 341-344.

[2] = Acute toxicity, LD 50 (method of Miller and Tainter); details: in vivo; mouse, oral application
Method: The acute toxicity of the compound of the invention in the mouse (expressed by LD 50 mg/kg; method of Miller and Tainter; Proc. Soc. Exper. Biol. a. Med. Vol. 57 (1944) pages 261 et seq.) on oral application, for example, is above 6000 mg/kg.

Structure (SMILES): C=C1CC[C@@]2(OC1)O[C@H]1C[C@H]3[C@@H]4CC=C5C[C@@H](O)C[C@@H](O)[C@]5(C)[C@H]4[C@H](O)C[C@]3(C)[C@H]1[C@@H]2C [compound of the invention, spiro-5,25(27)-diene-1β,3β,11α-triol]
- muscle relaxing and central nervous system influencing activity (central nervous system): muscle relaxing and central nervous system influencing activity has been established
- Ulcer Protecting Effect ([1]; Daily Dosage 50 mg/kg, rat): 58%
- Ulcer Protecting Effect ([1]; Daily Dosage 100 mg/kg, rat): 78%
- Ulcer Protecting Effect ([1]; Daily Dosage 200 mg/kg, rat): 80%
- ulcer healing activity ([1]; in words): has an ulcer healing activity
- antiulcer activity ([1]; indometacin ulcers of rats, in words): good antiulcer activity
- minimal effective dose ([1]; po, 24 h, orally, indometacin ulcer, rat, read-out: lowest effective dosage): 50 mg/kg
- antiulcer activity compared with Biogastrone ([1]; versus known medicine Biogastrone, in words): comparable to the activity of the known medicine Biogastrone
- LD50 [2]: > 6000 mg/kg
